Measured values published in ChEMBL document CHEMBL5136985, “Natural and synthetic β-carboline as a privileged antifungal scaﬀolds” (Eur J Med Chem, 2022).
Converted amounts (≈) assume the structure as drawn.

How the values were obtained:
Alternaria solani = assay: Antifungal activity against Alternaria solani relative to control; format: functional; design: concentration or dose not given beside the values
Bipolaris maydis = assay: Antifungal activity against Bipolaris maydis relative to control; format: functional; design: concentration or dose not given beside the values
Rhizoctonia solani = assay: Antifungal activity against Rhizoctonia solani; format: functional, organism-based
[1] = system: Colletotrichum gloeosporioides; assay: Antifungal activity against Colletotrichum gloeosporioides; format: functional
Cytospora mali = assay: Antifungal activity against Valsa mali; format: functional
Alternaria alternata = assay: Antifungal activity against Alternaria alternata; format: functional
Alternaria brassicae = assay: Antifungal activity against Alternaria brassicae; format: functional
[2] = system: Trichophyton interdigitale; assay: Antifungal activity against Trichophyton interdigitale; format: functional
Fusarium solani [3] = assay: Antifungal activity against Fusarium solani; format: functional, organism-based
Sclerotinia [4] = assay: Antifungal activity against sunflower Sclerotinia rot at 50 ug/ml relative to control; format: functional; settings: dose 50 µg/ml
Gaeumannomyces graminis = assay: Antifungal activity against Gaeumannomyces graminis; format: functional, organism-based
Sclerotinia [5] = assay: Antifungal activity against rape Sclerotinia rot at 50 ug/ml relative to control; format: functional; settings: for inhibition at 50 µg/mL: Sclerotinia; for Activity: dose 50 µg/ml
Candida albicans [6] = assay: Antifungal activity against Candida albicans incubated for 72 hrs; format: functional
Candida albicans [7] = assay: Antifungal activity against Candida albicans; format: functional, organism-based; settings: for MIC: Candida albicans
Sclerotinia sclerotiorum = assay: Antifungal activity against Sclerotinia sclerotiorum; format: functional, organism-based
Aspergillus niger = assay: Antifungal activity against Aspergillus niger assessed as inhibition of growth rate at 100 ug/ml by disc diffusion method relative to control; format: functional
Bipolaris oryzae = assay: Antifungal activity against Helminthosporium oryzae assessed as inhibition of growth rate at 100 ug/ml by disc diffusion method relative to control; format: functional
Candida albicans [8] = assay: Antifungal activity against Candida albicans incubated for 24 hrs by well diffusion method; format: functional
Fusarium solani [9] = assay: Antifungal activity against Fusarium solani incubated for 72 hrs; format: functional, organism-based; settings: for EC50: Fusarium solani, 72 h
Curvularia lunata = assay: Antifungal activity against Curvularia lunata; format: functional, organism-based

Cc1nccc2c1[nH]c1cc(OC(=O)NC(C)C)ccc12
Activity (Alternaria solani): 21.1%
Activity (Bipolaris maydis): 22.7%

COc1cc(C(=O)NC(=S)Nc2cc3c([nH]c4ccccc43)c(-c3cc(OC)c(OC)c(OC)c3)n2)cc(OC)c1OC
EC50 (Rhizoctonia solani): 293 µg/mL (≈ 486 µM)

O=C1[C@@H]2Cc3c([nH]c4ccccc34)C(c3ccc([N+](=O)[O-])cc3)N2C(=O)[C@@H]2CCCN12 (stereo partly specified)
MIC [1]: 6.25 µg/mL (≈ 15 µM)
MIC (Cytospora mali): 12.5 µg/mL (≈ 30 µM)
MIC (Alternaria alternata): 12.5 µg/mL (≈ 30 µM)
MIC (Alternaria brassicae): 12.5 µg/mL (≈ 30 µM)

COc1cc(-c2nc(NC(=O)Nc3ccc(C(F)(F)F)cc3)cc3c2[nH]c2ccccc23)cc(OC)c1OC
EC50 (Rhizoctonia solani): 281 µg/mL (≈ 524 µM)

CCCCCCCCCCc1nccc2c1[nH]c1ccccc12
MIC [2]: 1.6 µg/mL (≈ 5.19 µM)

Cc1ccc2c(c1)c1c(n2C)C=[N+](c2ccccc2C)CC1
EC50 (Fusarium solani [3]): 3.47 µM

Cc1nccc2c3ccccc3n(Cc3cn(-c4ccncc4)nn3)c12
Activity (Sclerotinia [4]): 84.47%

NC(=O)c1cc2c([nH]c3ccccc32)c(-c2ccccn2)n1
EC50 (Gaeumannomyces graminis): 2.85 µM

COC(=O)c1cc2c([nH]c3ccccc32)c(C(=O)OC)n1
EC50 (Gaeumannomyces graminis): 1.16 µM

O=C1[C@@H]2Cc3c([nH]c4ccccc34)C(c3ccccc3)N2C(=O)[C@@H]2CCCN12 (stereo partly specified)
MIC [1]: 12.5 µg/mL (≈ 33.7 µM)
MIC (Cytospora mali): 12.5 µg/mL (≈ 33.7 µM)
MIC (Alternaria alternata): 12.5 µg/mL (≈ 33.7 µM)
MIC (Alternaria brassicae): 12.5 µg/mL (≈ 33.7 µM)

c1ccc(-c2nc(-c3nnc(C4CC4)o3)cc3c2[nH]c2ccccc23)cc1
EC50 (Rhizoctonia solani): 4.2 µg/mL (≈ 11.9 µM)

CO/C=C(/C(=O)OC)c1ccccc1Oc1cc(Oc2ccccc2C#N)ncn1 [AZOXYSTROBIN]
inhibition at 50 µg/mL (Sclerotinia [5]): 88.5%
Activity (Sclerotinia [4]): 88.07%

CCn1c2ccccc2c2ccnc(-c3nc4ccccc4[nH]3)c21
inhibition at 50 µg/mL (Sclerotinia [5]): 92%

COc1ccc2c(c1)[nH]c1c(C)nccc12 [HARMINE]
MIC (Candida albicans [6]): 500 µg/mL (≈ 2360 µM)
Activity (Alternaria solani): 15.7%
Activity (Bipolaris maydis): 22.7%

C[n+]1ccc2c3ccccc3n(-n3c4ccccc4c4cc[n+](C)cc43)c2c1.[I-].[I-]
EC50 (Candida albicans [7]): 0.5 uM/ml

COc1cc(C2c3[nH]c4ccccc4c3C[C@H]3C(=O)N4CCC[C@H]4C(=O)N23)ccc1O (stereo partly specified)
MIC [1]: 12.5 µg/mL (≈ 29.9 µM)
MIC (Cytospora mali): 6.25 µg/mL (≈ 15 µM)
MIC (Alternaria alternata): 12.5 µg/mL (≈ 29.9 µM)
MIC (Alternaria brassicae): 6.25 µg/mL (≈ 15 µM)

Cc1nccc2c1[nH]c1ccc(Br)cc12
Activity (Alternaria solani): 73.7%
Activity (Bipolaris maydis): 86.4%

COc1ccc(-c2nc(NC(=O)NC(=O)c3c(F)cccc3F)cc3c2[nH]c2ccccc23)cc1
EC50 (Rhizoctonia solani): 277 µg/mL (≈ 586 µM)

Cc1nccc2c1[nH]c1cc(OC(=O)C(C)(C)C)ccc12
Activity (Alternaria solani): 66.7%
Activity (Bipolaris maydis): 78.9%

Cc1ccccc1[N+]1=Cc2c(c3ccccc3n2C)CC1
EC50 (Fusarium solani [3]): 2.35 µM

CC(C)Cc1nccc2c1[nH]c1ccccc12
MIC [2]: 100 µg/mL (≈ 446 µM)

Cn1c2c(c3ccccc31)CC[N+](c1ccc(F)cc1)=C2
EC50 (Fusarium solani [3]): 2.18 µM

c1ccc(C[C@@H]2COC(c3nccc4c3[nH]c3ccccc34)=N2)cc1
EC50 (Sclerotinia sclerotiorum): 12 µM

CC(C)c1nc(C(N)=O)cc2c1[nH]c1ccccc12
EC50 (Gaeumannomyces graminis): 2.85 µM

Cc1cccc([N+]2=Cc3c(c4cc(C)ccc4n3C)CC2)c1
EC50 (Fusarium solani [3]): 2.67 µM

Fc1ccc(Cn2c3ccccc3c3ccnc(-c4nc5ccccc5[nH]4)c32)cc1
Activity (Sclerotinia [5]): 79.89%

CCC(C)Cc1nccc2c1[nH]c1ccccc12 (stereo unspecified)
MIC [2]: 50 µg/mL (≈ 210 µM)

N#Cc1c(Cl)c(Cl)c(Cl)c(C#N)c1Cl [CHLOROTHALONIL]
Activity (Alternaria solani): 73.3%
Activity (Bipolaris maydis): 91.3%

CC(C)(C)[C@@H]1COC(c2nccc3c2[nH]c2ccccc23)=N1
EC50 (Sclerotinia sclerotiorum): 13 µM

COC1=CC(=O)C[C@@H](C)[C@]12Oc1c(Cl)c(OC)cc(OC)c1C2=O [GRISEOFULVIN]
inhibition at 100 µg/mL (Aspergillus niger): 20.3%
inhibition at 100 µg/mL (Bipolaris oryzae): 20.4%

O=C1[C@@H]2Cc3c([nH]c4ccccc34)C(c3ccc(O)cc3)N2C(=O)[C@@H]2CCCN12 (stereo partly specified)
MIC [1]: 12.5 µg/mL (≈ 32.3 µM)
MIC (Cytospora mali): 12.5 µg/mL (≈ 32.3 µM)
MIC (Alternaria alternata): 12.5 µg/mL (≈ 32.3 µM)
MIC (Alternaria brassicae): 6.25 µg/mL (≈ 16.1 µM)

Cc1nccc2c1[nH]c1ccccc12 [HARMAN]
MIC [2]: 200 µg/mL (≈ 1100 µM)
Activity (Alternaria solani): 68.4%
Activity (Bipolaris maydis): 36.4%

Oc1ccccc1C1NCCc2c1[nH]c1ccccc21 (stereo unspecified)
inhibition at 100 µg/mL (Aspergillus niger): 21.2%
inhibition at 100 µg/mL (Bipolaris oryzae): 19.8%

COc1ccc2c3c([nH]c2c1)C(C)=NCC3 [HARMALINE]
MIC (Candida albicans [6]): 666 µg/mL (≈ 3110 µM)

Cc1nccc2c3ccccc3n(Cc3cn(-c4cc(F)c(F)c(F)c4)nn3)c12
Activity (Sclerotinia [4]): 85.98%

C=CCCCCCCCCCOC(=O)c1cc2c([nH]c3ccccc32)c(-c2ccc(O)cc2)n1
MIC (Candida albicans [8]): 2.8 µg/mL (≈ 6.13 µM)
MIC (Candida albicans [7]): 2.8 µg/mL (≈ 6.13 µM)

O=C(O)c1cc2c([nH]c3ccccc32)c(-c2ccsc2)n1
EC50 (Sclerotinia sclerotiorum): 11.9 µM

COC(=O)Nc1nc2ccccc2[nH]1 [CARBENDAZIM]
Activity (Sclerotinia [4]): 89.77%
EC50 (Fusarium solani [9]): 4.34 µM

O=C(Nc1ccccc1-c1ccc(Cl)cc1)c1cccnc1Cl [BOSCALID]
EC50 (Sclerotinia sclerotiorum): 0.9 µM

c1ccc([C@@H]2COC(c3nccc4c3[nH]c3ccccc34)=N2)cc1
EC50 (Sclerotinia sclerotiorum): 17.3 µM

COc1cc(-c2nc(NC(=O)NC(=O)c3c(F)cccc3F)cc3c2[nH]c2ccccc23)cc(OC)c1OC
EC50 (Rhizoctonia solani): 131 µg/mL (≈ 246 µM)

CCCCCCCCc1nccc2c1[nH]c1ccccc12
MIC [2]: 3.2 µg/mL (≈ 11.4 µM)

COc1ccc(C2c3[nH]c4ccccc4c3C[C@H]3C(=O)N4CCC[C@H]4C(=O)N23)cc1 (stereo partly specified)
MIC [1]: 6.25 µg/mL (≈ 15.6 µM)
MIC (Cytospora mali): 12.5 µg/mL (≈ 31.1 µM)
MIC (Alternaria alternata): 12.5 µg/mL (≈ 31.1 µM)
MIC (Alternaria brassicae): 12.5 µg/mL (≈ 31.1 µM)

Cc1cc2c3ccccc3n(C(C)C)c2cn1
EC50 (Curvularia lunata): 4.23 µg/mL (≈ 18.9 µM)

CCCCCCCCCc1nccc2c1[nH]c1ccccc12
MIC [2]: 3.2 µg/mL (≈ 10.9 µM)

c1ccc(Cn2c3ccccc3c3ccnc(-c4nc5ccccc5[nH]4)c32)cc1
inhibition at 50 µg/mL (Sclerotinia [5]): 88.5%

c1ccc2[nH]c(-c3cscn3)nc2c1 [THIABENDAZOLE]
EC50 (Fusarium solani [9]): 12.5 µM
inhibition (INH) (Fusarium solani [9]; time 72 hrs): 89.3%

O=C(O)c1cc2c([nH]c3ccccc32)c(-c2ccc(Br)cc2)n1
EC50 (Sclerotinia sclerotiorum): 5.38 µM

Cc1nccc2c3ccccc3n(Cc3cn(-c4ccccc4)nn3)c12
Activity (Sclerotinia [4]): 85.04%

Cc1nc(C(=O)O)cc2c1[nH]c1ccccc12 [HARMAN-3-CARBOXYLIC ACID]
Activity (Alternaria solani): 33.3%
Activity (Bipolaris maydis): 21.1%

CC1=NCCc2c1[nH]c1cc(O)ccc21 [HARMALOL]
MIC (Candida albicans [6]): 750 µg/mL (≈ 3750 µM)

Cc1nccc2c1[nH]c1cc(O)ccc12
Activity (Alternaria solani): 26.3%
Activity (Bipolaris maydis): 31.8%

Clc1ccc(COC(Cn2ccnc2)c2ccc(Cl)cc2Cl)c(Cl)c1 (stereo unspecified) [MICONAZOLE]
MIC (Candida albicans [8]): 7.8 µg/mL (≈ 18.7 µM)

Cc1cccc([N+]2=Cc3c(c4ccccc4n3C)CC2)c1
EC50 (Fusarium solani [3]): 3.03 µM

c1ccc2c(c1)c1ccncc1n2-n1c2ccccc2c2ccncc21
EC50 (Candida albicans [7]): > 1 uM/ml

CC[C@@H](C)[C@@H]1COC(c2nccc3c2[nH]c2ccccc23)=N1
EC50 (Sclerotinia sclerotiorum): 17.7 µM

Cc1ccc2c(c1)c1c(n2C)C=[N+](c2ccc(Cl)cc2)CC1
EC50 (Fusarium solani [3]): 2.68 µM

Cc1ccc([N+]2=Cc3c(c4ccccc4n3C)CC2)cc1
EC50 (Fusarium solani [3]): 2.47 µM

CC(C)[C@@H]1COC(c2nccc3c2[nH]c2ccccc23)=N1
EC50 (Sclerotinia sclerotiorum): 15.5 µM

Cc1nccc2c3ccccc3n(Cc3cn(-c4ccc(C(F)(F)F)cc4)nn3)c12
Activity (Sclerotinia [4]): 86.93%

Cc1ccc2c(c1)c1c(n2C)C=[N+](c2ccc(F)cc2)CC1
EC50 (Fusarium solani [3]): 5.44 µM

CN(C)c1ccc(C2NCCc3c2[nH]c2ccccc32)cc1 (stereo unspecified)
inhibition at 100 µg/mL (Aspergillus niger): 20.8%
inhibition at 100 µg/mL (Bipolaris oryzae): 21.6%

CC(C)C1c2[nH]c3ccccc3c2C[C@H]2C(=O)N3CCC[C@H]3C(=O)N12 (stereo partly specified)
MIC [1]: 12.5 µg/mL (≈ 37 µM)
MIC (Cytospora mali): 12.5 µg/mL (≈ 37 µM)
MIC (Alternaria alternata): 12.5 µg/mL (≈ 37 µM)
MIC (Alternaria brassicae): 12.5 µg/mL (≈ 37 µM)

Cc1nccc2c1[nH]c1ccc([N+](=O)[O-])cc12
Activity (Alternaria solani): 33.3%
Activity (Bipolaris maydis): 31.6%

CC[C@@H]1COC(c2nccc3c2[nH]c2ccccc23)=N1
EC50 (Sclerotinia sclerotiorum): 22.4 µM

CCCCCc1nccc2c1[nH]c1ccccc12
MIC [2]: 50 µg/mL (≈ 210 µM)

CCCCCCc1nccc2c1[nH]c1ccccc12
MIC [2]: 25 µg/mL (≈ 99.1 µM)

C=CCCCCCCCCCOC(=O)c1cc2c([nH]c3ccccc32)c(-c2ccc(OC)cc2)n1
MIC (Candida albicans [8]): 8.6 µg/mL (≈ 18.3 µM)
MIC (Candida albicans [7]): 8.6 µg/mL (≈ 18.3 µM)

CCCCn1c2ccccc2c2ccnc(-c3nc4ccccc4[nH]3)c21
Activity (Sclerotinia [5]): 80.46%

CCCCCCCc1nccc2c1[nH]c1ccccc12
MIC [2]: 12.5 µg/mL (≈ 46.9 µM)

COc1cc(C2NCCc3c2[nH]c2ccccc32)ccc1O (stereo unspecified)
inhibition at 100 µg/mL (Aspergillus niger): 21.6%
inhibition at 100 µg/mL (Bipolaris oryzae): 22.4%

OCC1=C[C@H](N[C@H]2C[C@H](CO)[C@@H](O[C@@H]3O[C@H](CO)[C@@H](O)[C@H](O)[C@H]3O)[C@H](O)[C@H]2O)[C@H](O)[C@@H](O)[C@@H]1O [VALIDAMYCIN]
EC50 (Rhizoctonia solani): 198 µg/mL (≈ 397 µM)

CC(C)CCc1nccc2c1[nH]c1ccccc12
MIC [2]: 50 µg/mL (≈ 210 µM)
